Experimental data from patent publication US7015351B2, “Reaction systems for making N-(phosphonomethyl) glycine compounds” (Monsanto Technology LLC, priority 2000, dated 2006).

Columns and labels:
[1] = cited from earlier work
[2] = Solubility of N-(phosphonomethyl)glycine product in water / aqueous reaction mixture; assay type: physicochemical; details: oxidation operating temperatures from about 95 to about 105° C.

Compound | maximum N-(phosphonomethyl)glycine solubility ([1]; aqueous reaction mixture, temperatures of from about 60° C. to 90° C.) | concentration at which the product remains soluble [2] | solubility relative to the free acid ([1]; at 25° C.)
O=C(O)CNCP(=O)(O)O [N-(phosphonomethyl)glycine] | less than 6.5% | – | –
CC(C)N.O=C(O)CNCP(=O)(O)O [isopropylamine salt of N-(phosphonomethyl)glycine] | – | ≥ 50 % by weight | roughly 40 times
